pIC50: −log10 of the molar value.
Key:
[1] = biological target: T1, HDAC1 (Homo sapiens, UniProt Q13547); experiment: HDAC enzyme activity inhibition (in vitro), HDAC1 Fluorimetric Drug Discovery Assay Kit; format: biochemical; conditions: samples at 100, 1000 and 10000 nM; 37° C. 60 minutes; fluorescence Ex 390, Em 460; read-out: HDAC1 IC50
T1 construct: purchased Enzolifesciences BML-AK511
Summary of the method: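 Compounds at 100, 1000, 10000 nM (HDAC1) or 0.1, 1, 10, 100, 1000 nM (HDAC6); 37° C, 60 min; developer, 37° C, 30 min; fluorescence Ex 390/Em 460.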

[2] = biological target: T2, HDAC6 human recombinant (Homo sapiens, UniProt Q9UBN7); experiment: HDAC enzyme activity inhibition (in vitro), HDAC6 assay; format: biochemical; conditions: samples at 0.1, 1, 10, 100 and 1000 nM; 37° C. 60 minutes; fluorescence Ex 390, Em 460; read-out: HDAC6 IC50
T2 construct: purchased Calbiochem 382180
T2 sequence (Q9UBN7 1-1215): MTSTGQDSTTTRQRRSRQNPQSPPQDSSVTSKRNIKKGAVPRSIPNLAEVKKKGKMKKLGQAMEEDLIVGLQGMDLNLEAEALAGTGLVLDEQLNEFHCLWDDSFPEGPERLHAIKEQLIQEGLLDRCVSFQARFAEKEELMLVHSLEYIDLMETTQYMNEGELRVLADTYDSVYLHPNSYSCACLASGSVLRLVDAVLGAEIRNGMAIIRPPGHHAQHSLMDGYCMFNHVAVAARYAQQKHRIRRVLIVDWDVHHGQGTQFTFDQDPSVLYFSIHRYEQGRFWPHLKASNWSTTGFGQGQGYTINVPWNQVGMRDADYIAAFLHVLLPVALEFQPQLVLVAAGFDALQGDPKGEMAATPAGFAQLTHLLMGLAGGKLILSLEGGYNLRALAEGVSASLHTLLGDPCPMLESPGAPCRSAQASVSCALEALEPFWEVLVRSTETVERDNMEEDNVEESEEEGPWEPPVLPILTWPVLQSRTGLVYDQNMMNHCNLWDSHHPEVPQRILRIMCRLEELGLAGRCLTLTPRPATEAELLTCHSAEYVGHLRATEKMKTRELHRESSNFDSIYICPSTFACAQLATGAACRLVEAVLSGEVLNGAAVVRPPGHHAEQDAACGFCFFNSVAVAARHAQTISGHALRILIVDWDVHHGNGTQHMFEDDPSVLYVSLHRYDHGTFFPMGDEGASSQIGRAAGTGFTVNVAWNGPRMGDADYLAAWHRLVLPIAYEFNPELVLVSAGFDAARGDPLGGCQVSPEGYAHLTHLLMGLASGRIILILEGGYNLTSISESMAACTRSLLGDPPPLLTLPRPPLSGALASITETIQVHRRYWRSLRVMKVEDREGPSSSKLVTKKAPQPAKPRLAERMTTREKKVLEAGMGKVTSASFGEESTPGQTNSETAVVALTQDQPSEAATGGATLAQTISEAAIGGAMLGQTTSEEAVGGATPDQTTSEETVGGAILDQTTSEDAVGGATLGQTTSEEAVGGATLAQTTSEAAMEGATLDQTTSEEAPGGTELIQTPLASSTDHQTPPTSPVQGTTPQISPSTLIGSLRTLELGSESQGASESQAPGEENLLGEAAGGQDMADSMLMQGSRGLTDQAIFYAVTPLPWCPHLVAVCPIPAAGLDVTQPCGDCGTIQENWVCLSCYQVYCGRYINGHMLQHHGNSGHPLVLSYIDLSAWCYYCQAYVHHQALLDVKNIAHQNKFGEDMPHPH
Summary of the method: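 HDAC6 human recombinant enzyme with fluorimetric substrate; […]. Reaction 60 min at 37° C, then developer 30 min at 37° C; fluorescence read at Ex 390/Em 460.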

T1 sequence (Q13547 whole entry): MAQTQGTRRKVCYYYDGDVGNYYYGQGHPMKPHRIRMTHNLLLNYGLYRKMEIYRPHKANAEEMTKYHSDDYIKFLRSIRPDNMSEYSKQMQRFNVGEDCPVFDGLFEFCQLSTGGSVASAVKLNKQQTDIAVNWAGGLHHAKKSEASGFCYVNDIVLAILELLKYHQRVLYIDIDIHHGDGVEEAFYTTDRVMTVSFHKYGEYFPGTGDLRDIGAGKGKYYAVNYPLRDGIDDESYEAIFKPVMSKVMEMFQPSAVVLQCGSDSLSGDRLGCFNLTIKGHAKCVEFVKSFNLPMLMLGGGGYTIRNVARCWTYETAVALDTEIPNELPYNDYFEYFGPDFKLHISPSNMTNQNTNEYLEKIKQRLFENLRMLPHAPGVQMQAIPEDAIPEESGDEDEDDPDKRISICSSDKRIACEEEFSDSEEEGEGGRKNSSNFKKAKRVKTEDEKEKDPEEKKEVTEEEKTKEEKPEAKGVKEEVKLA

Row | SMILES | pIC50 [1] | pIC50 [2]
1 | CN1CCC(n2c(=O)n(Cc3ccc(-c4nnc(C(F)F)o4)cc3F)c3cc(Cl)c(Cl)cc32)CC1 [Compound 87, 5,6-dichloro-1-(4-(5-(difluoromethyl)-1,3,4-oxadiazole-2-yl)-2-fluorobenzyl)-3-(1-methylpiperidine-4-yl)-1,3-dihydro-2H-benzo[d]imidazole-2-one] | < 5.00 | 7.20
2 | CN1CCC(n2c(=O)n(Cc3ccc(-c4nnc(C(F)F)o4)cn3)c3cc(C(F)(F)F)ccc32)CC1 [Compound 89, 3-((5-(5-(difluoromethyl)-1,3,4-oxadiazole-2-yl)pyridine-2-yl)methyl)-1-(1-methylpiperidine-4-yl)-5-(trifluoromethyl)-1,3-dihydro-2H-benzo[d]imidazole-2-one] | < 5.00 | 7.42
3 | CN1CCC(n2c(=O)n(Cc3ccc(-c4nnc(C(F)F)o4)cc3F)c3cc(C(F)(F)F)ccc32)CC1 [Compound 91] | < 5.00 | 7.24
4 | CN1CCC(n2c(=O)n(Cc3ccc(-c4nnc(C(F)F)o4)cc3F)c3cc(F)c(F)cc32)CC1 [Compound 93, 1-(4-(5-(difluoromethyl)-1,3,4-oxadiazole-2-yl)-2-fluorobenzyl)-5,6-difluoro-3-(1-methylpiperidine-4-yl)-1,3-dihydro-2H-benzo[d]imidazole-2-one] | < 5.00 | 7.40
5 | O=c1n(Cc2ccc(-c3nnc(C(F)F)o3)cc2F)c2cc(F)c(F)cc2n1C1CCN(C2COC2)CC1 [Compound 94, 1-(4-(5-(difluoromethyl)-1,3,4-oxadiazole-2-yl)-2-fluorobenzyl)-5,6-difluoro-3-(1-(oxetan-3-yl)piperidine-4-yl)-1,3-dihydro-2H-benzo[d]imidazole-2-one] | < 5.00 | 7.35
6 | CN1CCC(n2c(=O)n(Cc3ccc(-c4nnc(C(F)F)o4)cc3)c3cc(F)c(F)cc32)CC1 [Compound 95, 1-(4-(5-(difluoromethyl)-1,3,4-oxadiazole-2-yl)benzyl)-5,6-difluoro-3-(1-methylpiperidine-4-yl)-1,3-dihydro-2H-benzo[d]imidazole-2-one] | < 5.00 | 7.29
7 | CN1CCC(n2c(=O)n(Cc3ccc(-c4nnc(C(F)F)o4)cn3)c3ccc(Cl)cc32)CC1 [Compound 97, 5-chloro-1-((5-(5-(difluoromethyl)-1,3,4-oxadiazole-2-yl)pyridine-2-yl)methyl)-3-(1-methylpiperidine-4-yl)-1,3-dihydro-2H-benzo[d]imidazole-2-one] | < 5.00 | 7.49
8 | CN1CCC(n2c(=O)n(Cc3ccc(-c4nnc(C(F)F)o4)cc3F)c3ccc(Cl)cc32)CC1 [Compound 101, 5-chloro-1-(4-(5-(difluoromethyl)-1,3,4-oxadiazole-2-yl)-2-fluorobenzyl)-3-(1-methylpiperidine-4-yl)-1,3-dihydro-2H-benzo[d]imidazole-2-one] | < 5.00 | 7.36
9 | CN1CCC(n2c(=O)n(Cc3ccc(-c4nnc(C(F)F)o4)cc3F)c3ncccc32)CC1 [Compound 103, 3-(4-(5-(difluoromethyl)-1,3,4-oxadiazole-2-yl)-2-fluorobenzyl)-1-(1-methylpiperidine-4-yl)-1,3-dihydro-2H-imidazo[4,5-b]pyridine-2-one] | < 5.00 | 6.47

Continued, values first:

Row | pIC50 [1] | pIC50 [2] | SMILES
10 | < 5.00 | 7.44 | O=c1n(Cc2ccc(-c3nnc(C(F)F)o3)cn2)c2cc(F)c(F)cc2n1C1CCN(C2COC2)CC1 [Compound 84, 1-((5-(5-(difluoromethyl)-1,3,4-oxadiazole-2-yl)pyridine-2-yl)methyl)-5,6-difluoro-3-(1-(oxetan-3-yl)piperidine-4-yl)-1,3-dihydro-2H-benzo[d]imidazole-2-one]
11 | < 5.00 | 7.51 | CN1CCC(n2c(=O)n(Cc3ccc(-c4nnc(C(F)F)o4)cc3)c3cc(Cl)c(Cl)cc32)CC1 [Compound 85, 5,6-dichloro-1-(4-(5-(difluoromethyl)-1,3,4-oxadiazole-2-yl)benzyl)-3-(1-methylpiperidine-4-yl)-1,3-dihydro-2H-benzo[d]imidazole-2-one]
12 | < 5.00 | 7.55 | O=c1n(Cc2ccc(-c3nnc(C(F)F)o3)cc2)c2cc(Cl)c(Cl)cc2n1C1CCN(C2COC2)CC1 [Compound 86, 5,6-dichloro-1-(4-(5-(difluoromethyl)-1,3,4-oxadiazole-2-yl)benzyl)-3-(1-(oxetan-3-yl)piperidine-4-yl)-1,3-dihydro-2H-benzo[d]imidazole-2-one]
13 | < 5.00 | 7.42 | O=c1n(Cc2ccc(-c3nnc(C(F)F)o3)cc2F)c2cc(Cl)c(Cl)cc2n1C1CCN(C2COC2)CC1 [Compound 88, 5,6-dichloro-1-(4-(5-(difluoromethyl)-1,3,4-oxadiazole-2-yl)-2-fluorobenzyl)-3-(1-(oxetan-3-yl)piperidine-4-yl)-1,3-dihydro-2H-benzo[d]imidazole-2-one]
14 | < 5.00 | 7.51 | O=c1n(Cc2ccc(-c3nnc(C(F)F)o3)cn2)c2cc(C(F)(F)F)ccc2n1C1CCN(C2COC2)CC1 [Compound 90, 3-((5-(5-(difluoromethyl)-1,3,4-oxadiazole-2-yl)pyridine-2-yl)methyl)-1-(1-(oxetan-3-yl)piperidine-4-yl)-5-(trifluoromethyl)-1,3-dihydro-2H-benzo[d]imidazole-2-one]
15 | < 5.00 | 7.21 | O=c1n(Cc2ccc(-c3nnc(C(F)F)o3)cc2F)c2cc(C(F)(F)F)ccc2n1C1CCN(C2COC2)CC1 [Compound 92, 3-(4-(5-(difluoromethyl)-1,3,4-oxadiazole-2-yl)-2-fluorobenzyl)-1-(1-(oxetan-3-yl)piperidine-4-yl)-5-(trifluoromethyl)-1,3-dihydro-2H-benzo[d]imidazole-2-one]
16 | < 5.00 | 7.44 | O=c1n(Cc2ccc(-c3nnc(C(F)F)o3)cc2)c2cc(F)c(F)cc2n1C1CCN(C2COC2)CC1 [Compound 96, 1-(4-(5-(difluoromethyl)-1,3,4-oxadiazole-2-yl)benzyl)-5,6-difluoro-3-(1-(oxetan-3-yl)piperidine-4-yl)-1,3-dihydro-2H-benzo[d]imidazole-2-one]
17 | < 5.00 | 7.55 | O=c1n(Cc2ccc(-c3nnc(C(F)F)o3)cn2)c2ccc(Cl)cc2n1C1CCN(C2COC2)CC1 [Compound 98, 5-chloro-1-((5-(5-(difluoromethyl)-1,3,4-oxadiazole-2-yl)pyridine-2-yl)methyl)-3-(1-(oxetan-3-yl)piperidine-4-yl)-1,3-dihydro-2H-benzo[d]imidazole-2-one]
18 | < 5.00 | 7.43 | CN1CCC(n2c(=O)n(Cc3ccc(-c4nnc(C(F)F)o4)cc3)c3ccc(Cl)cc32)CC1 [Compound 99, 5-chloro-1-(4-(5-(difluoromethyl)-1,3,4-oxadiazole-2-yl)benzyl)-3-(1-methylpiperidine-4-yl)-1,3-dihydro-2H-benzo[d]imidazole-2-one]
19 | < 5.00 | 7.41 | O=c1n(Cc2ccc(-c3nnc(C(F)F)o3)cc2)c2ccc(Cl)cc2n1C1CCN(C2COC2)CC1 [Compound 100, 5-chloro-1-(4-(5-(difluoromethyl)-1,3,4-oxadiazole-2-yl)benzyl)-3-(1-(oxetan-3-yl)piperidine-4-yl)-1,3-dihydro-2H-benzo[d]imidazole-2-one]
20 | < 5.00 | 7.23 | O=c1n(Cc2ccc(-c3nnc(C(F)F)o3)cc2F)c2ccc(Cl)cc2n1C1CCN(C2COC2)CC1 [Compound 102, 5-chloro-1-(4-(5-(difluoromethyl)-1,3,4-oxadiazole-2-yl)-2-fluorobenzyl)-3-(1-(oxetan-3-yl)piperidine-4-yl)-1,3-dihydro-2H-benzo[d]imidazole-2-one]
